Results taken from ChEMBL document CHEMBL5291721, “A preclinical secondary pharmacology resource illuminates target-adverse drug reaction associations of marketed drugs” (Nat Commun, 2023).

Target: T1, Type-1 angiotensin II receptor (Homo sapiens, UniProt P30556)
T1 sequence (P30556 whole entry): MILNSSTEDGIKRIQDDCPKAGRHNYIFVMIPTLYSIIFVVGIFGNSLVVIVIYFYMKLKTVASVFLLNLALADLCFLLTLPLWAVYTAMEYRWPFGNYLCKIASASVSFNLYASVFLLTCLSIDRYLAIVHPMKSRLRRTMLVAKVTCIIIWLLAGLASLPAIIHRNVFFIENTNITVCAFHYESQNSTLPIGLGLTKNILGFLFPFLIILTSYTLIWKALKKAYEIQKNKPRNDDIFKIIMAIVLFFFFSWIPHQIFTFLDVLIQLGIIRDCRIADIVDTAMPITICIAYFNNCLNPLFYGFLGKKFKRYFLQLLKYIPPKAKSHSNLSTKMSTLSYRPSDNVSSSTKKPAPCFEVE
Further: assay procedure not described here.

SMILES: O=C(OCC(O)CO)c1ccccc1Nc1ccnc2cc(Cl)ccc12 (stereo unspecified) [GLAFENINE]
- AC50: > 100 µM
